These results are taken from PMC12311729, “Probing the Mechanism of L‑DOPA 2,3-Dioxygenase Using Synthetic Derivatives of 3,4-Dihydroxyhydrocinnamic Acid” (ACS Omega, 2025).

“Also recorded” adds a separate entry of the source.

Data set [1] is described as follows: Cyclic voltammetry (redox potentials on a GCE). It is filed as physicochemical. To be noted: for (E p)a Oxidation / (E p)c Reduction / E1/2 / Ipa/Ipc / ΔE p: GCE (d = 2 mm); for E1/2 (mV) at pH 7.4 relative to L-DOPA x 100: percentage of the value for L-DOPA. The text has this: Reduction and oxidation potentials were experimentally performed by cyclic voltammetry (CV) at biological pH 7.4, as previously described. All samples were run on a CH Instruments 600E Potentiostat in a one-compartment cell equipped with a three-electrode system arrangement. The three-electrode system included a saturated calomel electrode as the reference electrode, a platinum wire as the auxiliary electrode, and a glassy carbon electrode (GCE, d = 2 mm) as the working electrode. The GCE was polished between each sample scan with an aqueous slurry of alumina powder on a microcloth pad. The electrodes were rinsed with distilled water prior to the next scan. All scans were conducted under nitrogen for oxygen displacement and at room temperature (rt, 25 ± 1 °C). All samples were prepared as close to the scan as possible (approximately 2 min each). Each sample (5 mL) contained 0.1 mM catecholic substrate and 1 μM DMSO in 0.1 M phosphate buffer at a pH of 7.4 or 6.0. […] The cyclic voltammograms for the compounds at both pH 6.0 and 7.4 are available in Figures S40–S51.

In data set [2] the target is L-DOPA 2,3-dioxygenase from S. lincolnensis (LmbB1) (Streptomyces lincolnensis, UniProt Q54354). Kind of data set: UV-visible steady-state assay of L-DOPA 2,3-dioxygenase (LmbB1). It is filed as biochemical. To be noted: for activity / turnover as substrate: aerobic reaction observed by UV–visible spectroscopy; for kSP, O2 (μM^-1 min^-1) at pH 7.5 relative to L-DOPA x 100 for LmbB1: percentage of the value for L-DOPA. How it is done: (§1) Purified, reconstituted L-DOPA 2,3-dioxygenases were assessed for activity by monitoring the cleavage of catecholic substrates using UV–visible spectroscopy. 3,4-Dihydroxyhydrocinnamic acid (DHHCA, 3) was purchased from Sigma-Aldrich. 6-CyanoDHHCA (5) and 6-bromoDHHCA (4) were synthesized as described above.
Chain of L-DOPA 2,3-dioxygenase from S. lincolnensis (LmbB1) (Q54354 entry or part of it): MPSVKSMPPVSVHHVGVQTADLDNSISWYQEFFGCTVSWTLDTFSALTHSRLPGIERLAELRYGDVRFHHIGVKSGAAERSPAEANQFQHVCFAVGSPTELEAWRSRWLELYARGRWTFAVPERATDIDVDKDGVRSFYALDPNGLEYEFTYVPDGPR
(§2) Molecular oxygen (AirGas) was bubbled directly into the reaction buffer through a glass-bonded silica gas diffuser (Bubblemac Industries, Inc.) or as a gas mixture blended with air (AirGas). Solutions were bubbled with oxygen for several minutes prior to use and for the duration of the experiment. To determine the K M for oxygen (i.e., K MO2), L-DOPA 2,3-dioxygenases (0.25–4.0 μM) were reacted with a saturating concentration of the catecholic substrate DHHCA/6-X-DHHCA derivatives (2–10× the K M sufficient to achieve k cat) and various oxygen concentrations (21–100% or 270–1300 μM at 22 °C). The concentration of oxygen was varied by changing the percentage of oxygen in the blend using a galvanic oxygen sensor and oxygen monitor (AirGas) and then bubbling solutions, as described above. Molecular oxygen percentages were converted to molar concentrations using a reference temperature of 22 °C. The reaction of L-DOPA 2,3-dioxygenases with DHHCA/6-X-DHHCA derivatives as a function of oxygen concentration was followed by the appearance of the steady-state cleavage product by using UV–visible spectroscopy.
(§3) The extinction coefficients for steady-state cleavage products of DHHCA and synthetic 6-X-DHHCA derivatives were determined by reacting various concentrations of DHHCA/6-X-DHHCA derivatives at 22 °C with a 10-fold stoichiometric excess of enzyme (quantified by Fe^II–see Reconstitution) in 50 mM HEPES buffer with 154 mM NaCl at pH 7.5, bubbled with 100% oxygen to a final concentration of 780–910 μM, depending on the volume of oxygenated buffer that comprised the reaction (60–70%). Substrate solutions were prepared from authentic synthetic standards using an analytical balance, and reactions were run to completion as assessed by the appearance of the steady-state product. The λmax and extinction coefficients of DHHCA, 6-cyanoDHHCA, and 6-bromoDHHCA were determined herein as ε380 = 40 740 ± 820 M^–1cm^–1, ε385 = 33 256 ± 484 M^–1cm^–1, and ε380 = 35 282 ± 1190 M^–1cm^–1, respectively (Figure S52).
(§4) Steady-state kinetic data were obtained through a UV–visible spectroscopic assay. Initial rates were obtained from the slopes of the linear regions of the progress curves and plotted versus substrate concentration to yield a hyperbola, which was analyzed using the Michaelis–Menten expression and nonlinear least-squares fitting (NLSF) with Origin 6.0 (Microcal). Two possible derivations of the Michaelis–Menten expression were used: 1) the traditional expression y = k cat × x/(K M + x), where y is Rate/E 0 or the rate of product formation (μM/min) divided by the starting enzyme concentration (μM), x is substrate concentration (μM) and k SP (also known as k cat × K M ^–1)–that is, the second-order rate constant of enzyme and substrate–is extracted from the fitted constants; or 2) the alternative derivation that extracts k SP and k cat directly from the fit: y = (k SP × x)/((1 + k SP × x)/k cat), and where y is Rate/E 0 or the rate of product formation (μM/min) divided by the starting enzyme concentration (μM), x is substrate concentration (μM), k SP is equivalent to k cat×K M ^–1, and K M is extracted from k cat/k cat×K M ^–1.

Data set [3] deals with L-DOPA 2,3-dioxygenase from S. hygroscopicus jingganensis (ShjDDO) (Streptomyces hygroscopicus, UniProt H2JL11). Kind of data set: UV-visible steady-state assay of L-DOPA 2,3-dioxygenase (ShjDDO). It is filed as biochemical. To be noted: for activity / turnover as substrate: ShjDDO, aerobic reaction observed by UV–visible spectroscopy; for kSP, O2 (μM^-1 min^-1) at pH 7.5 relative to L-DOPA x 100 for ShjDDO: percentage of the value for L-DOPA. As to the method:
as §1, §2, §3, §4

Data set [4] is described as follows: Determination of pKa values by spectrophotometric titration. To be noted: for pK a value: first catecholic deprotonation, determined spectroscopically from pH 3 to 12.5; for Catecholic pKa value relative to L-DOPA x 100: percentage of the value for L-DOPA.
Method: A buffer system utilizing five different buffers was prepared to cover the pH range of 3.0 to 12.50. A Thermo Scientific Orion Star A211 pH meter was used to measure and determine the pH of each buffer. The pH meter was calibrated using three- and four-point calibration with pH values of 4.00, 7.01, and 10.01 and 4.00, 7.01, 10.01, and 12.00, respectively.
The buffer systems were prepared as previously described and included: NaOAc/HOAc buffers (C = 0.1 M; I = 0.1 M) were used to cover the pH range of 3.0 to 5.50. KH2PO4/K2HPO4 buffers (C = 0.05 M; I = 0.1 M) were used to cover the pH range of 6.00 to 8.00. CHES buffers (C = 0.05 M; I = 0.1 M) were used to cover the pH range of 8.50 to 10.50. Na2HPO4/Na3PO4 buffers (C = 0.05 M; I = 0.1 M) were used to cover the pH range of 11.00 to 12.00. KCl buffers (C = 0.1 M; I = 0.1 M) were used to cover the pH range of 12.00 to 12.50.
The absorbance spectra of the compounds were determined at each pH as previously described. Briefly, a stock solution was prepared for each compound by weighing 2 mg of the compound using a high-precision analytical balance. Each compound was then dissolved in DMSO at a concentration of 10 mM. A UV-transparent 96-well microplate (Corning clear acrylic 96-well UV plate with a UV-transparent flat bottom) was loaded with 196 μL of buffer solution and 4 μL of the catechol stock in each well to get a final concentration of 200 μM. DMSO (4 μL) was added to 196 μL of the appropriate buffer to produce a blank solution for each buffer.
The 96-well plate was loaded into the microplate reader and incubated at 30 °C and shaken for 10 min before the reading. Absorbance readings were completed by using a Synergy HTX 15032517 microplate reader. Each well was read at wavelengths from 210 to 600 nm with 2-nm increments for each scan over a duration of 60 min.
The data were analyzed as previously described. Raw UV-spectra scans were exported to the Excel program. They were first processed by subtracting the reading of the blank solutions from the reading of each compound at the corresponding wavelengths. […] Finally, the spectral difference between the pH 3.0 buffer and the spectra at all other pH values was plotted. Additionally, the spectral difference between the pH 4.0 buffer and the spectra at all other higher pH values was plotted. The wavelengths for the maximum positive and negative absorbance were determined by using the graphs of the spectral difference plots, both for the pH 3.0 and pH 4.0 spectral difference plots. The absolute maximum positive and total absorbance differences at these chosen wavelengths were plotted against the pH of each buffer. The data were imported into the Origin 6.0 program, and the pK a values were determined with a nonlinear regression using eq : 1 Absorbancetotal=εHA−εA−[10^(pH−pKa)]/1+10^(pH−pKa)×[St]
εHA is the extinction coefficients of the acid form of the compound, and εA ^– is the extinction coefficient of the base form of the compound (i.e., the minima and maxima of the absorbance difference curve, respectively), and [S t] is the total compound concentration.
On the set-up of data set [5]: method as in Biochemistry 2021, 60, 32, 2492–2507. The following applies: similarly 6-substituted dopamine; ref Biochemistry 2021, 60, 32, 2492–2507; cited from earlier work.
Setting [6] is: LmbB1 active site, ratio to DHHCA.
Setting [7] is: ShjDDO active site, ratio to DHHCA.

Chain of L-DOPA 2,3-dioxygenase from S. hygroscopicus jingganensis (ShjDDO) (H2JL11 1-162): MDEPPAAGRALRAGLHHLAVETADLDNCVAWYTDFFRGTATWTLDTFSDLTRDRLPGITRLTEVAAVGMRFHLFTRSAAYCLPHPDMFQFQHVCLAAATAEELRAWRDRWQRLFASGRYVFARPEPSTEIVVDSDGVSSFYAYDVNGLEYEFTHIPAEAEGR

`O=C(O)CCc1cc(O)c(O)cc1Br` [6-BromoDHHCA (4), 3-(2-bromo-4,5-dihydroxyphenyl) propanoic acid]: in data set [1] (pH 6.0), the “(E p)a Oxidation” value is reported as 267 mV, the “(E p)c Reduction” value was found to be 154 mV, the E1/2 is 210.5 mV and the Ipa/Ipc is 1.43. This molecule also returned a ΔE p in data set [1] (pH 6.0) of 113 mV. Further, in data set [1] (pH 7.4), the “(E p)a Oxidation” value was determined as 195 mV, the “(E p)c Reduction” value is given as 59 mV, the E1/2 is on record as 127 mV and the Ipa/Ipc was determined as 1.21. This molecule showed a ΔE p in data set [1] (pH 7.4) of 136 mV. Also, in data set [1], the “E1/2 (mV) at pH 7.4 relative to L-DOPA x 100” value is on record as 63%. Further, the “activity / turnover as substrate” value in data set [2] (LmbB1) is recorded as “measurable activity”. The “K M tighter than DHHCA” value in data set [2] (LmbB1, ratio to DHHCA) was 4.5 fold. Besides, in data set [2] (setting [6]), the “k SP,O2 slower than DHHCA” value was “more than 5 fold” and the “k cat slower than DHHCA” value was “more than 10 fold”. The “kcat at 22 °C and 100% O2 saturation” value in data set [2] (S. lincolnensis enzyme, pH 7.5) is recorded as 1.6 × 10^–1 ± 4.6 × 10 ^–3 sec^–1. The “kSP,O2 × 10^2 at 22 °C” value in data set [2] (S. lincolnensis enzyme, values are kSP × 10^2) was 3.5 ± 0.5 μM^–1 min^–1. In addition, in data set [2] (S. lincolnensis enzyme, values are kSP × 10^2, kSP = kcat/KM), the “kSP catechol × 10^2 at 22 °C” value is given as 4.6 ± 0.5 μM^–1 min^–1. In addition, the “kSP, O2 (μM^-1 min^-1) at pH 7.5 relative to L-DOPA x 100 for LmbB1” value in data set [2] is on record as 4%. The “kcat at 22 °C and 100% O2 saturation” value in data set [3] (S. hygroscopicus jingganensis enzyme, pH 7.5) was found to be 1.5 ± 0.1 sec^–1. Moreover, the “kSP,O2 × 10^2 at 22 °C” value in data set [3] (S. hygroscopicus jingganensis enzyme, values are kSP × 10^2) stood at 15.8 ± 1.0 μM^–1 min^–1. The “kSP catechol × 10^2 at 22 °C” value in data set [3] (S. hygroscopicus jingganensis enzyme, values are kSP × 10^2, kSP = kcat/KM) is listed as 9.8 ± 1.9 μM^–1 min^–1. Moreover, the “k SP,O2 compared with DHHCA” value in data set [3] (ShjDDO active site) is recorded as “equivalent to DHHCA (3) within error”. In data set [3] (setting [7]), the “K M weaker than DHHCA” value is 2 fold and the “k cat faster than DHHCA” value is 2 fold. Also, in data set [3], the “activity / turnover as substrate” value is listed as “measurable activity” and the “kSP, O2 (μM^-1 min^-1) at pH 7.5 relative to L-DOPA x 100 for ShjDDO” value is around 11%. For the same molecule, in data set [4], the pK a value came out at 8.36 ± 0.07 and the “Catecholic pKa value relative to L-DOPA x 100” value stood at 95%.
Turning to `O=C(O)CCc1cc(O)c(O)cc1[N+](=O)[O-]` [6-NitroDHHCA (6), 3-(4,5-dihydroxy-2-nitrophenyl) propanoic acid], the entries for the “(E p)a Oxidation” value in data set [1] (pH 6.0) and in data set [1] (pH 7.4) were 444 mV and 288 mV, respectively. Further, the “activity / turnover as substrate” value in data set [2] (LmbB1) and in data set [3] was “no turnover was detected; also recorded: did not undergo turnover” throughout. The pK a value in data set [4] came out at 6.94 ± 0.06.
Turning to `NCCc1cc(O)c(O)cc1Br` [Compound 6-bromoDA, 6-bromodopamine, reference compound], the “E1/2 (mV) at pH 7.4 relative to L-DOPA x 100” value in data set [1] is given as 77%. Moreover, the “kSP, O2 (μM^-1 min^-1) at pH 7.5 relative to L-DOPA x 100 for LmbB1” value in data set [2] came to 27%. Besides, the “kSP, O2 (μM^-1 min^-1) at pH 7.5 relative to L-DOPA x 100 for ShjDDO” value in data set [3] amounted to 9%. Besides, the “pK a value of dopamine counterpart” value in data set [5] is 8.09 ± 0.03. For the same molecule, in data set [4], the “Catecholic pKa value relative to L-DOPA x 100” value is 92%.
On to `N[C@@H](Cc1ccc(O)c(O)c1)C(=O)O` [L-DOPA (1), L-3,4-dihydroxyphenylalanine], for which, in data set [1] (pH 6.0), the “(E p)a Oxidation” value is reported as 362 mV, the “(E p)c Reduction” value came out at 101 mV, the E1/2 stood at 231.5 mV and the Ipa/Ipc came to 5.90. Moreover, in data set [1] (pH 6.0), the ΔE p came to 261 mV. Besides, the “(E p)a Oxidation” value in data set [1] (pH 7.4) is given as 315 mV. Moreover, the “kSP, O2 (μM^-1 min^-1) at pH 7.5 relative to L-DOPA x 100 for LmbB1” value in data set [2] is on record as 100%. Besides, the “kSP, O2 (μM^-1 min^-1) at pH 7.5 relative to L-DOPA x 100 for ShjDDO” value in data set [3] is given as 100%. In data set [4], the pK a value came to 8.81 ± 0.19 and the “Catecholic pKa value relative to L-DOPA x 100” value is given as 100%.
Regarding `NCCc1cc(O)c(O)cc1[N+](=O)[O-]` [dopamine counterpart of 6-NitroDHHCA (6), 6-nitrodopamine], the “pK a value of dopamine counterpart” value in data set [5] is reported as 6.23 ± 0.03.
